Data from paper PMC6753678, “Fueling Open Innovation for Malaria Transmission-Blocking Drugs: Hundreds of Molecules Targeting Early Parasite Mosquito Stages” (Frontiers in Microbiology, 2019).
Where two headings read alike, the source gives them in different places.

How the values were obtained:
[1] = tested on: P. falciparum female gametocytes; design: method as in Miguel-Blanco et al 2017; conditions: ref Miguel-Blanco et al 2017; read-out: Pf FGAA IC50; cited from earlier work
[2] = tested on: P. berghei ookinete development; conditions: for % inhibition, Replicate A / % inhibition, Replicate B: primary screen at 1 μM
HepG2 cells [3] = conditions: HepG2; ref Miguel-Blanco et al 2017; cited from earlier work
[4] = tested on: 3D7-strain P. falciparum asexual parasites; assay: P. falciparum asexual growth inhibition assay (Pf GIA); assay type: cell-based, Plasmodium falciparum; conditions: dose response confirmation; read-out: Pf asexual growth inhibition assays IC50
Summary of the method: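 LDH readout: absorbance at 650 nm after 10 min at room temperature with lactate/APAD/NBT/diaphorase mix on thawed plates. Cultures (0.25% parasitemia, 2% hematocrit) were treated 72 h at 37°C in low-oxygen gas. Inhibition was normalised to 50 μM chloroquine and DMSO; n=3 biological replicates.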

HepG2 cells [5] = assay: HepG2 cytotoxicity assay; conditions: for IC50: read-out: HepG2 cytotoxicity assay IC50, dose response confirmation
Summary of the method: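 Percent inhibition derived from fluorescent viability readout, normalised to DMSO (negative) and 50 μM doxorubicin (positive). Compound incubation lasted 48 h at 37°C, 5% CO2, with 2,500 HepG2 cells/well in MEM plus 10% FBS and 1% NEAA.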

[6] = tested on: P. falciparum female gametocytes; assay: P. falciparum female gametogenesis assay (Pf FGAA); conditions: 1: YES; 0: NO; >10-fold selectivity over cytotox
[7] = read-out: Pb ODA IC50, this manuscript
[8] = read-out: Pb Ookinete development assay IC50, dose response confirmation
[9] = HepG2 values of the three screens unified
[10] = unified HepG2 cytotoxicity across the three screens

For `Cc1[nH]c(C)c(-c2ccc(CCc3ccc(F)cc3F)cc2)c(=O)c1Cl` [TCMDC-135462], the IC50 [1] is given as 13.3 µM, the “Is compound selective in assay? Pb ODA active?” value ([2]; 1: YES, 0: NO) is given as 1 (1: YES) and the “% inhibition, Replicate A” value [2] is given as 91.00%. For the same compound, the “% inhibition, Replicate B” value [2] was 103.90%, the IC50 [2, 7] was 0.01 µM and the IC50 [2, 8] was 0.011 µM. For the same compound, the “HepG2 cytoxicity (Pf FGAA screen)” value (HepG2 cells [3]) was greater than 100 µM, the IC50 [4] was 0.00253 µM and the Unified cytotox (HepG2 cells [5]; [9]) was 100.00 µM. For the same compound, the IC50 (HepG2 cells [5]) was 100 µM.
In the case of `Clc1ccc(Nc2nc(NCc3ccccc3)nc(N/N=C/c3ccccn3)n2)cc1` [TCMDC-138557], the “Is compound selective in assay? Pf FGAA active?” value [6] is given as 1 (1: YES), the IC50 [1] is given as 0.26 µM and the Unified cytotox (HepG2 cells [5]; [10]) is given as 13.96 µM.
For `Cl.O=C(NCCCCN1CCC(c2ccc3c(c2O)CCCC3)CC1)c1ccc(NC(=O)c2ccc(Cl)cc2)cc1` [TCMDC-138645], the “Is compound selective in assay? Pf FGAA active?” value [6] is given as 0 (0: NO), the IC50 [1] is given as 1.49 µM and the Unified cytotox (HepG2 cells [5]; [10]) is given as 3.80 µM.
For `CC(C)(C)c1ccc(CNCCOc2ccc(Nc3nnc(-c4ccc(-c5ncc[nH]5)cc4)o3)c3ccccc23)cc1.O=C(O)C(F)(F)F` [TCMDC-138667], the “Is compound selective in assay? Pf FGAA active?” value [6] is listed as 0 (0: NO), the IC50 [1] is listed as 0.62 µM and the Unified cytotox (HepG2 cells [5]; [10]) is listed as 5.96 µM.
In the case of `CCc1ccc(C2CCN(CCCCNC(=O)c3ccc(NC(=O)c4ccc(Cl)cc4)cc3)CC2)c(OCCO)c1` [TCMDC-138703], the “Is compound selective in assay? Pf FGAA active?” value [6] is listed as 0 (0: NO), the IC50 [1] is listed as 2.25 µM and the Unified cytotox (HepG2 cells [5]; [10]) is listed as 5.37 µM.
In the case of `COc1cc2nc(N3CCC(CNC(=O)c4ccc(-c5ccc(C(F)(F)F)cc5)cc4)CC3)nc(N)c2cc1OC` [TCMDC-138716], the “Is compound selective in assay? Pf FGAA active?” value [6] is given as 0 (0: NO), the IC50 [1] is given as 0.85 µM and the Unified cytotox (HepG2 cells [5]; [10]) is given as 4.92 µM.
For `COc1cc2nc(N3CCC(CNC(=O)c4ccc(-c5ccc(Cl)cc5)cc4)CC3)nc(N)c2cc1OC` [TCMDC-138718], the “Is compound selective in assay? Pf FGAA active?” value [6] is given as 0 (0: NO), the IC50 [1] is given as 0.89 µM and the Unified cytotox (HepG2 cells [5]; [10]) is given as 4.22 µM.
For `COC(=O)c1ccc(-c2ccc(C(=O)NCC3CCN(c4nc(N)c5cc(OC)c(OC)cc5n4)CC3)cc2)cc1` [TCMDC-138721], the “Is compound selective in assay? Pf FGAA active?” value [6] is listed as 0 (0: NO), the IC50 [1] is listed as 0.91 µM and the Unified cytotox (HepG2 cells [5]; [10]) is listed as 6.10 µM.
In the case of `O=C(NCCCCN1CCC(c2ccc3c(c2OCCN2CCCC2)CCCC3)CC1)c1ccc(-c2ccc(C(F)(F)F)cc2)cc1` [TCMDC-138768], the “Is compound selective in assay? Pf FGAA active?” value [6] is given as 0 (0: NO), the IC50 [1] is given as 1.98 µM and the Unified cytotox (HepG2 cells [5]; [10]) is given as 5.39 µM.
For `O=C(Nc1ccc(-c2ccccc2)c(OCCN2CCNCC2)c1)c1ccc(-c2ccc(Cl)cc2)cc1` [TCMDC-138818], the “Is compound selective in assay? Pf FGAA active?” value [6] is listed as 0 (0: NO), the IC50 [1] is listed as 1.38 µM and the Unified cytotox (HepG2 cells [5]; [10]) is listed as 4.95 µM.
In the case of `O=C(NC1CCN(CCN2CCC(c3c[nH]c4ccccc34)CC2)CC1)c1ccc(-c2ccc(C(F)(F)F)cc2)cc1` [TCMDC-138845], the “Is compound selective in assay? Pf FGAA active?” value [6] is given as 0 (0: NO), the IC50 [1] is given as 1.8 µM and the Unified cytotox (HepG2 cells [5]; [10]) is given as 4.68 µM.
For `CC(C)(CN)c1nc(-c2ccc(Cl)c(O)c2)c(-c2ccncc2)[nH]1.Cl` [TCMDC-140369], the IC50 [1] is given as 0.94 µM, the “% inhibition, Replicate A” value [2] is given as 54.47% and the “% inhibition, Replicate B” value [2] is given as 53.78%. For the same compound, the IC50 [2, 7] was 0.51 µM, the IC50 [2, 8] was 0.514 µM and the “HepG2 cytoxicity (Pf FGAA screen)” value (HepG2 cells [3]) was 2.16 µM. For the same compound, the IC50 [4] was 0.194 µM, the “HepG2 cytoxicity (Pb ODA, this manuscript)” value (HepG2 cells [5]; HepG2, this manuscript) was 1.66 µM and the Unified cytotox (HepG2 cells [5]; [9]) was 1.91 µM. The IC50 (HepG2 cells [5]) was 1.66 µM.
With `COc1ccc2nccc([C@@H](O)CN3CCC(NCc4ccc5c(c4)NC(=O)CO5)CC3)c2c1.Cl` [TCMDC-140793] the “Is compound selective in assay? Pb ODA active?” value [2] was 0 (key: 1: YES; 0: NO), the “% inhibition, Replicate A” value [2] was 51.85% and the “% inhibition, Replicate B” value [2] was 48.48%. It also gave an IC50 ([2]; read-out: Pb ODA (this manuscript) IC50, P. berghei ookinete development assay, this manuscript) of 3.63 µM, an IC50 [2, 8] of 3.63 µM and an IC50 [4] of 0.721 µM. For the same compound, the “Pb ODA (this manuscript) HepG2 cytoxicity” value (HepG2 cells [5]; HepG2 cytotoxicity listed with the Pb ODA data set (this manuscript)) was 28.18 µM and the IC50 (HepG2 cells [5]) was 28.2 µM.
